In patent publication US4656166A, “Antibiotic compounds derived from cephalosporins, process for their production and pharmaceutical compositions” (Sanofi, priority 1983, dated 1987):
Values after ≈ are worked out from the molar mass of the structure shown.

How the values were obtained:
Type in all cases: cell-based
[1] = tested on: Escherichia coli SOL 90; test: MIC, in vitro dilution method, Escherichia coli SOL 90 (Table III); conditions: SOL90; Escherichia coli SOL 90; dilution method; read-out: MIC
Source text: (§1) The products of the invention have been studied as regards their pharmacological properties and, more especially, bacteriostatic action. This has been determined in vitro by the dilution method, and the study was on Gram negative strains.
(§2) Results, expressed in minimum inhibiting concentrations (MIC-- μg/ml), are collected in the following table (Table III).

[2] = tested on: Proteus vulgaris RL 99 bis; test: MIC, in vitro dilution method, Proteus vulgaris RL 99 bis (Table III); conditions: RL99BIS; Proteus vulgaris RL 99 bis; dilution method; read-out: MIC
Source text: as §1, §2

[3] = tested on: Klebsiella RO 30; test: MIC, in vitro dilution method, Klebsiella RO 30 (Table III); conditions: RO30; Klebsiella RO 30; dilution method; read-out: MIC
Source text: as §1, §2

[4] = tested on: Pseudomonas RL 112; test: MIC, in vitro dilution method, Pseudomonas RL 112 (Table III); conditions: RL112
Source text: as §1, §2

[5] = tested on: Citrobacter RL 49; test: MIC, in vitro dilution method, Citrobacter RL 49 (Table III); conditions: RL49; Citrobacter RL 49; dilution method; read-out: MIC
Source text: as §1, §2

[6] = tested on: Serratia RL 72; test: MIC, in vitro dilution method, Serratia RL 72 (Table III); conditions: RL72
Source text: as §1, §2

[7] = tested on: Enterobacter RO 154; test: MIC, in vitro dilution method, Enterobacter RO 154 (Table III); conditions: RO154; Enterobacter RO 154; dilution method; read-out: MIC
Source text: as §1, §2

| Compound | MIC [1] [µg/mL] | MIC [2] [µg/mL] | MIC [3] [µg/mL] | MIC [4] [µg/mL] | MIC [5] [µg/mL] | MIC [6] [µg/mL] | MIC [7] [µg/mL] |
| --- | --- | --- | --- | --- | --- | --- | --- |
| NC[C@H]1CC[C@H](C(=O)OCC2=C(C(=O)O)N3C(=O)C(NC(=O)/C(=N\OC4(C(=O)O)CCC4)c4csc(N)n4)C3[S+]([O-])C2)CC1 (some centres unmarked) [42 212] | ≤ 0.12 | ≤ 0.12 | ≤ 0.12 | 4 (≈ 6.13 µM) | ≤ 0.12 | 0.25 (≈ 0.383 µM) | ≤ 0.12 |
| CC(CN)C(=O)OCC1=C(C(=O)O)N2C(=O)C(NC(=O)C(=NOC(C)(C)C(=O)O)c3csc(N)n3)C2[S+]([O-])C1 (centres unmarked) [42 025] | 0.5 (≈ 0.852 µM) | 0.25 (≈ 0.426 µM) | 0.5 (≈ 0.852 µM) | 4 (≈ 6.82 µM) | 0.5 (≈ 0.852 µM) | 1 (≈ 1.7 µM) | 4 (≈ 6.82 µM) |
| CC(C)(ON=C(C(=O)NC1C(=O)N2C(C(=O)O)=C(COC(=O)C3CCCCC3CN)C[S+]([O-])C12)c1csc(N)n1)C(=O)O (centres unmarked) [42 321] | 0.5 (≈ 0.78 µM) | ≤ 0.125 | 0.5 (≈ 0.78 µM) | 8 (≈ 12.5 µM) | 0.5 (≈ 0.78 µM) | 1 (≈ 1.56 µM) | 0.25 (≈ 0.39 µM) |
| CCNCc1cccc(C(=O)OCC2=C(C(=O)O)N3C(=O)C(NC(=O)/C(=N\OC(C)(C)C(=O)O)c4csc(N)n4)C3[S+]([O-])C2)c1 (centres unmarked) [42 538] | 0.5 (≈ 0.754 µM) | ≤ 0.125 | 0.25 (≈ 0.377 µM) | 8 (≈ 12.1 µM) | 0.25 (≈ 0.377 µM) | 0.5 (≈ 0.754 µM) | 0.25 (≈ 0.377 µM) |
| Cc1ccc(C(=O)OCC2=C(C(=O)O)N3C(=O)C(NC(=O)/C(=N\OC(C)(C)C(=O)O)c4csc(N)n4)C3[S+]([O-])C2)cc1CN (centres unmarked) [42 379] | 0.25 (≈ 0.385 µM) | ≤ 0.125 | ≤ 0.125 | 8 (≈ 12.3 µM) | ≤ 0.125 | 0.5 (≈ 0.771 µM) | ≤ 0.125 |
| CC(C)(O/N=C(\C(=O)NC1C(=O)N2C(C(=O)O)=C(COC(=O)c3cccc(NC(=O)CN)c3)C[S+]([O-])C12)c1csc(N)n1)C(=O)O (centres unmarked) [42 374] | 0.5 (≈ 0.738 µM) | ≤ 0.125 | 0.25 (≈ 0.369 µM) | 4 (≈ 5.9 µM) | 0.25 (≈ 0.369 µM) | 1 (≈ 1.48 µM) | 0.25 (≈ 0.369 µM) |
| NC[C@H]1CC[C@H](C(=O)OCC2=C(C(=O)O)N3C(=O)C(NC(=O)/C(=N\OCC(=O)O)c4csc(N)n4)C3[S+]([O-])C2)CC1 (some centres unmarked) [42 211] | ≤ 0.12 | ≤ 0.12 | ≤ 0.12 | 64 (≈ 104 µM) | ≤ 0.12 | ≤ 0.12 | ≤ 0.12 |
| NCc1ccc(C(=O)SCC2=C(C(=O)O)N3C(=O)C(NC(=O)C(=NOC4(C(=O)O)CCC4)c4csc(N)n4)C3[S+]([O-])C2)cc1 (centres unmarked) [compound 42222] | 0.5 (≈ 0.754 µM) | ≤ 0.12 | 0.5 (≈ 0.754 µM) | 8 (≈ 12.1 µM) | ≤ 0.12 | 1 (≈ 1.51 µM) | 0.5 (≈ 0.754 µM) |
| CC(C)(O/N=C(\C(=O)NC1C(=O)N2C(C(=O)O)=C(COC(=O)CC3CCCNC3)C[S+]([O-])C12)c1csc(N)n1)C(=O)O (centres unmarked) [42 372] | 0.25 (≈ 0.399 µM) | ≤ 0.125 | 0.25 (≈ 0.399 µM) | 4 (≈ 6.38 µM) | ≤ 0.125 | 0.25 (≈ 0.399 µM) | ≤ 0.125 |
| Cc1cc(C)c(C(=O)OCC2=C(C(=O)O)N3C(=O)C(NC(=O)C(=NOC4(C(=O)O)CCC4)c4csc(N)n4)C3[S+]([O-])C2)c(C)c1CN (centres unmarked) [42 542] | 0.5 (≈ 0.726 µM) | ≤ 0.125 | ≤ 0.25 | 8 (≈ 11.6 µM) | 0.5 (≈ 0.726 µM) | 0.5 (≈ 0.726 µM) | 0.5 (≈ 0.726 µM) |
| COc1cc(C(=O)OCC2=C(C(=O)O)N3C(=O)C(NC(=O)/C(=N\OC(C)(C)C(=O)O)c4csc(N)n4)C3[S+]([O-])C2)ccc1CN (centres unmarked) [42 461] | 0.25 (≈ 0.376 µM) | ≤ 0.125 | ≤ 0.125 | 8 (≈ 12 µM) | ≤ 0.125 | 2 (≈ 3.01 µM) | ≤ 0.125 |
